We go through 27 molecules from the supplement of paper PMC12613149.

Data set [1] is described as follows: collision cross section (TIMS, N2 drift gas) of the primary ion; higher = larger gas-phase ion size. The procedure:
(§1)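 Reference mixture of environmental contaminants analysed by RP-LC (BEH C18, 50 °C; ESI+ with water/MeOH plus formic acid and ammonium formate, ESI- with ammonium bicarbonate) coupled to a timsTOF Pro 2 with trapped ion mobility in nitrogen (ramp/accumulation 100 ms). CCS was calibrated with Agilent tune mix (CCS compendium) and averaged over five injections at 0.5-500 ng/mL. The table reports the lowest-CCS (putative monomer) peak; retention times are on the same gradient.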

The nature of data set [2]: reversed-phase LC retention time (C18, 15 min MeOH gradient); higher = more hydrophobic / later elution. The procedure:
as §1

The mark [3] stands for this setting: ionization mode: ESI-, ion species: [M-H]-.
Where [4] appears, read: ionization mode: ESI+, ion species: [M+H]+.
Setting [5] is: ionization mode: ESI+, ion species: [M]+.

For the molecule `O=S(=O)(O)c1cccc2c(O)cccc12` [5-Hydroxy-1-naphthalenesulfonic acid], in data set [1] (setting [3]), the collision cross section is recorded as 143.15 Å². Further, the “reversed-phase LC retention time” value in data set [2] (setting [3]) is 2.41 min.

For the molecule `Cc1ccc2[nH]nnc2c1` [5-Methyl-1H-benzotriazole], in data set [1] (setting [4]), the collision cross section was determined as 123.85 Å². Besides, in data set [2] (setting [4]), the “reversed-phase LC retention time” value stood at 9.87 min.

Molecule `O=C(O)c1cc(C(=O)O)cc([N+](=O)[O-])c1` [5-Nitroisophthalic acid] registered a collision cross section in data set [1] (setting [3]) of 137.91 Å². Also, the “reversed-phase LC retention time” value in data set [2] (setting [3]) worked out at 0.96 min.

Regarding `COc1cc2nc(N3CCNCC3)nc(N)c2cc1OC` [6,7-Dimethoxy-2-(piperazin-1-yl)quinazolin-4-amine], the collision cross section in data set [1] (setting [4]) came to 172.06 Å². In addition, in data set [2] (setting [4]), the “reversed-phase LC retention time” value was determined as 6.11 min.

In data set [1] (setting [3]), `CC(C)N1C(=O)c2cc(O)ccc2NS1(=O)=O` [6-Hydroxybentazone] returned a collision cross section of 149.95 Å². Besides, the “reversed-phase LC retention time” value in data set [2] (setting [3]) came to 5.24 min.

In turn, `S=c1nc[nH]c2nc[nH]c12` [6-Mercaptopurine] showed a collision cross section in data set [1] (setting [4]) of 126.69 Å². Moreover, the “reversed-phase LC retention time” value in data set [2] (setting [4]) was found to be 2.22 min.

`CCCc1cc(=O)[nH]c(=S)[nH]1` [6-Propyl-2-thiouracil] returned a collision cross section in data set [1] (setting [3]) of 133.88 Å². The “reversed-phase LC retention time” value in data set [2] (setting [3]) turned out to be 6.69 min.

Consider `O=P(O)(OCCC(F)(F)C(F)(F)C(F)(F)C(F)(F)C(F)(F)C(F)(F)F)OCCC(F)(F)C(F)(F)C(F)(F)C(F)(F)C(F)(F)C(F)(F)F` [6:2 Fluorotelomer phosphate diester], for which the collision cross section in data set [1] (setting [3]) is on record as 232.73 Å². Also, the “reversed-phase LC retention time” value in data set [2] (setting [3]) came to 17.6 min.

For the molecule `O=S(=O)(O)CCC(F)(F)C(F)(F)C(F)(F)C(F)(F)C(F)(F)C(F)(F)F` [6:2 fluorotelomer sulfonic acid], the collision cross section in data set [1] (setting [3]) is reported as 168.03 Å². In addition, the “reversed-phase LC retention time” value in data set [2] (setting [3]) stood at 14.7 min.

Molecule `CC(C)CC(C)NC1=CC(=O)C(Nc2ccccc2)=CC1=O` (stereo not drawn) [6PPD-Quinone] displayed a collision cross section in data set [1] (setting [4]) of 181.85 Å². The “reversed-phase LC retention time” value in data set [2] (setting [4]) stood at 15.6 min.

`C[C@H]1C[C@@H]2[C@H]([C@@H](O)C[C@@]3(C)[C@H]2CC[C@]3(O)C(=O)CO)[C@@]2(C)C=CC(=O)C=C12` [6alpha-Methylprednisolone] displayed a collision cross section in data set [1] (setting [4]) of 190.78 Å². Further, the “reversed-phase LC retention time” value in data set [2] (setting [4]) came to 13.3 min.

Regarding `CCNc1ccc2c(C)cc(=O)oc2c1` [7-(Ethylamino)-4-methylcoumarin], in data set [1] (setting [4]), the collision cross section came out at 142.36 Å². Further, the “reversed-phase LC retention time” value in data set [2] (setting [4]) is 12.2 min.

In data set [1] (setting [4]), `Cc1cc(=O)oc2cc(N)ccc12` [7-Amino-4-methylcoumarin] had a collision cross section of 131.77 Å². Besides, the “reversed-phase LC retention time” value in data set [2] (setting [4]) amounted to 9.22 min.

In turn, `CCN(CC)c1ccc2c(C)cc(=O)oc2c1` [7-Diethylamino-4-methylcoumarin] registered a collision cross section in data set [1] (setting [4]) of 152.41 Å². The “reversed-phase LC retention time” value in data set [2] (setting [4]) was determined as 14.3 min.

On to `C[C@@H](CCC(=O)O)C1CCC2C3C(=O)CC4C[C@H](O)CC[C@]4(C)C3CC[C@@]21C` (stereo partly drawn) [7-Oxolithocholic acid], for which the results for the collision cross section in data set [1] (setting [4]) and in data set [1] (setting [3]) were 204.58 Å² and 208.67 Å², respectively. Moreover, the “reversed-phase LC retention time” value in data set [2] (setting [4]) was 15.8 min; in data set [2] (setting [3]), 14.3 min.

As to `NC(=O)N1c2ccccc2C(O)C(O)c2ccccc21` (stereo not drawn) [10,11-Dihydro-10,11-dihydroxycarbamazepine], in data set [1] (setting [4]), the collision cross section was found to be 157.4 Å². For the same molecule, the “reversed-phase LC retention time” value in data set [2] (setting [4]) is 10.4 min.

As to `NC(=O)N1c2ccccc2CC(O)c2ccccc21` (stereo not drawn) [10,11-Dihydro-10-hydroxycarbamazepine], the collision cross section in data set [1] (setting [4]) worked out at 154.89 Å². For the same molecule, the “reversed-phase LC retention time” value in data set [2] (setting [4]) stood at 10.7 min.

`C[C@]12CC(=O)[C@H]3[C@@H](CCC4=CC(=O)CC[C@@]43C)[C@@H]1CC[C@@H]2O` [11-Ketotestosterone]: the collision cross section in data set [1] (setting [4]) was determined as 174.04 Å². The “reversed-phase LC retention time” value in data set [2] (setting [4]) is 12.6 min.

`C[C@]12CC[C@@H]3c4ccc(O)cc4CC[C@H]3[C@@H]1CC[C@H]2O` [17-alpha-Estradiol] returned a collision cross section in data set [1] (setting [3]) of 173.91 Å². Moreover, the “reversed-phase LC retention time” value in data set [2] (setting [3]) is 14.5 min.

As for `C#C[C@]1(O)CC[C@H]2[C@@H]3CCc4cc(O)ccc4[C@H]3CC[C@@]21C` [17-alpha-Ethinylestradiol], in data set [1] (setting [3]), the collision cross section worked out at 182.24 Å². Also, the “reversed-phase LC retention time” value in data set [2] (setting [3]) was found to be 14.3 min.

In turn, `C[C@]12CC[C@@H]3c4ccc(O)cc4CC[C@H]3[C@@H]1CC[C@@H]2O` [17-beta-Estradiol] showed a collision cross section in data set [1] (setting [3]) of 173.91 Å². Moreover, the “reversed-phase LC retention time” value in data set [2] (setting [3]) was determined as 14.5 min.

`CC(=O)C1(O)CCC2C3CCC4=CC(=O)CCC4(C)C3CCC21C` (stereo not drawn) [17alpha-Hydroxyprogesterone]: the results for the collision cross section in data set [1] (setting [4]) and in data set [1] (setting [3]) were 183.52 Å² and 185.03 Å², respectively. The “reversed-phase LC retention time” value worked out at 14.5 min in data set [2] (setting [4]) and 14.8 min in data set [2] (setting [3]).

Consider `C[C@]12CCC(=O)C=C1CC[C@@H]1[C@@H]2CC[C@@]2(C)[C@H]1CC[C@]2(C)O` [17alpha-Methyltestosterone], for which the collision cross section in data set [1] (setting [4]) is listed as 178.22 Å². In addition, the “reversed-phase LC retention time” value in data set [2] (setting [4]) was 14.7 min.

For `CC12CCC(=O)C=C1CCC1C2CCC2(C)C(C(=O)CO)CCC12` (stereo not drawn) [21-Hydroxyprogesterone], the collision cross section in data set [1] (setting [4]) is 183.52 Å². Also, the “reversed-phase LC retention time” value in data set [2] (setting [4]) is 14.5 min.

In turn, `C[N+](C)(C)CC(O)CCl` (stereo not drawn) [(3-Chloro-2-hydroxypropyl)trimethylammonium] displayed a collision cross section in data set [1] (setting [5]) of 127.94 Å². The “reversed-phase LC retention time” value in data set [2] (setting [5]) was determined as 1.03 min.

In the case of `O=C(O)Cc1ccc(S(=O)(=O)O)cc1` [(4-Sulfophenyl)acetic acid], the collision cross section in data set [1] (setting [3]) was 135.07 Å². Further, the “reversed-phase LC retention time” value in data set [2] (setting [3]) was found to be 0.96 min.

Turning to `COC[P+](c1ccccc1)(c1ccccc1)c1ccccc1` [(Methoxymethyl)triphenylphosphonium], the collision cross section in data set [1] (setting [5]) stood at 170.42 Å². In data set [2] (setting [5]), the “reversed-phase LC retention time” value stood at 10.6 min.
